Data set [1] addresses soluble, sperm-specific adenylate cyclase (sAC) (Homo sapiens, UniProt Q96PN6). The data set can be described thus: sAC-Assay (HTRF cAMP detection). The note with it: read-out: IC50 (inhibition of the soluble adenylate cyclase). The class given is biochemical. The text has this:
In a suitable buffer system, the soluble, sperm-specific adenylate cyclase catalyzes the reaction of adenosine triphosphate (ATP) to cyclic adenosine monophosphate (cAMP) and pyrophosphate. Free cAMP that is generated in this way is then used in a competitive detection process, in which the binding of a europium kryptate (Eu[K])-labeled anti-cAMP antibody (anti cAMP-Eu[K]-AK) to a cAMP-molecule-labeled, modified allophycocyanine-1 molecule (cAMP-XL665) is prevented. In the absence of exogenic cAMP, after excitation at 335 nm, it results in a fluorescence resonance energy transfer (FRET) between the anti cAMP-Eu[K]-AK (FRET-donor) and the cAMP-XL665 molecule (FRET-acceptor). This process is quantified at different times (time-resolved) based on the emission of FRET-acceptor XL665 (665 nm and 620 nm). A signal drop (measured as a wave ratio; calculation formula: [(E665 nm/E620 nm)×10000]) can be attributed to the presence of cAMP and thus to the activity of sAC.
First, 1.5 μl of the test substance (in 30% DMSO), only 30% DMSO in the solvent controls, is introduced per recess in a 384-hole test plate (polystyrene; 384, NV). […]
After an additional incubation of 90 minutes at room temperature, the HTRF result is measured either on the Packard Discovery or with the RubiStar HTRF measuring device (Delay: 50 μs; Integration time: 400 μs).
In general terms: In TR-FRET formats the signal depends on donor and acceptor labels being close together.

For data set [2] the following is noted: statement on known sAC inhibitors; cited from earlier work.

Our source for the IC50 and toxicity values is patent publication US20070225284A1, “Inhibitors of soluble adenylate cyclase” (priority 2006, published 2007).

As usually defined, the IC50 is the concentration at which inhibition is half-maximal.

Sequence of soluble, sperm-specific adenylate cyclase (sAC) (Q96PN6 whole entry): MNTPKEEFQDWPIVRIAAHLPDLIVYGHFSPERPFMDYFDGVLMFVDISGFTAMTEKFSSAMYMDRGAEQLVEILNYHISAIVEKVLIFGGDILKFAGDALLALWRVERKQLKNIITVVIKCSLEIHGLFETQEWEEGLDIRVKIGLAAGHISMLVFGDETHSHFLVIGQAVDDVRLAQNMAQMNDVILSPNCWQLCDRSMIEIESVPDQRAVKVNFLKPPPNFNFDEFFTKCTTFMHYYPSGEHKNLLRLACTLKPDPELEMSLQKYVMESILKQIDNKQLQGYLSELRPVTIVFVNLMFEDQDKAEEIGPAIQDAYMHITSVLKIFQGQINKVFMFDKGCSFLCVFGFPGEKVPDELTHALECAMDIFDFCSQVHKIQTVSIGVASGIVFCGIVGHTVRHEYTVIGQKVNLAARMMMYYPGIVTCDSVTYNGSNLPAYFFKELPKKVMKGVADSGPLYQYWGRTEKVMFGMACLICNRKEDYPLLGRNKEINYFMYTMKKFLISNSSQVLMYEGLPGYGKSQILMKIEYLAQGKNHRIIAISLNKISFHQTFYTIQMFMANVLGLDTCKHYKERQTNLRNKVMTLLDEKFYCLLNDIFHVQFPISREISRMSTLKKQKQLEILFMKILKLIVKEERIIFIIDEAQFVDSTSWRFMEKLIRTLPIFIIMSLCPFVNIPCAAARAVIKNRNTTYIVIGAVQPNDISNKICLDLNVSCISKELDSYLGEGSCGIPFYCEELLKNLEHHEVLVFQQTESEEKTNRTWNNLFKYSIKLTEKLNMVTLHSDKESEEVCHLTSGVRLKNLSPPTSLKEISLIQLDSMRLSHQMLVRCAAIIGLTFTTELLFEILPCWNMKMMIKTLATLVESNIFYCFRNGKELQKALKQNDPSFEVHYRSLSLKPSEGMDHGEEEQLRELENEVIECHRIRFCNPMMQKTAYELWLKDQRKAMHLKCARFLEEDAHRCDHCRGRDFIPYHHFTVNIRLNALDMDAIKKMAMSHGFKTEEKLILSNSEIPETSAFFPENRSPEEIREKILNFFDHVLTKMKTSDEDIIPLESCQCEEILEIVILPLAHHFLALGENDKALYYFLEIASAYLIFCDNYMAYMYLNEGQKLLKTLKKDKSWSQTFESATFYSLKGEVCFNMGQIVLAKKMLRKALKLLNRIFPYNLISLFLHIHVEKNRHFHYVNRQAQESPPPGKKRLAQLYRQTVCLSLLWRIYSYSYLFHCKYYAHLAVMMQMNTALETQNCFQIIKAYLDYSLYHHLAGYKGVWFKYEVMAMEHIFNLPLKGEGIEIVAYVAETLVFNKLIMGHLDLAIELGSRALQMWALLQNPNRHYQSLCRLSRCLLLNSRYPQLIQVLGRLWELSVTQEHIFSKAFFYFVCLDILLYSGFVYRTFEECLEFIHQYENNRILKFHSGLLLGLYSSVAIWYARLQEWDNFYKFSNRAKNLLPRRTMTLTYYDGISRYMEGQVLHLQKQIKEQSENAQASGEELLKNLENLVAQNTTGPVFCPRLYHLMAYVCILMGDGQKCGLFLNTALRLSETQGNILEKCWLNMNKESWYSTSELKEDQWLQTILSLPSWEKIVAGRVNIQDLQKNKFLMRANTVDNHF

Consider `CN(c1ccc2[nH]c(C(=O)NCCN3CCOCC3)c(-c3ccccc3)c2c1)S(=O)(=O)c1ccc(C(C)(C)C)cc1`, for which the half-maximal inhibitory concentration (IC50) in data set [1] was 2600 nM.

For the molecule `Cc1cc2c(C(C)C)c(O)c(O)c(C=O)c2c(O)c1-c1c(C)cc2c(C(C)C)c(O)c(O)c(C=O)c2c1O` [gossypol], in data set [2], the toxicity entry is listed as “inherently toxic”. On to `CC(O)CNC(=O)c1[nH]c2ccc(N(C)S(=O)(=O)c3ccc(C(C)(C)C)cc3)cc2c1-c1ccccc1` (racemic) [Example 4, (±)-5-[(4-tert-Butyl-phenylsulfonyl)-methyl-amino]-3-phenyl-1H-indole-2-carboxylic acid-(2-hydroxy-propyl)-amide], for which, in data set [1], the IC50 was determined as 1300 nM.
